Values belong to the molecule of their own block, whether it stands above or below them. Active and inactive are the calls of the source.
Columns and labels:
[1] = in vitro; conditions: human, Caco-2
[2] = Ratio of total drug level in iv dosed rat brain to plasma measured 2 hrs post dose; assay type: ADME, organism-based; conditions: read-out: BPR
[3] = target: Sodium channel protein type 9 subunit alpha (Homo sapiens, UniProt Q15858); assay: Inhibition of human Nav1.7 expressed in CHO-K1 cells at -120 mV holding potential incubated over 5 mins measured at 15 secs interval by Qpatch clamp assay; assay type: cell-based
Sequence of Sodium channel protein type 9 subunit alpha (Q15858 whole entry): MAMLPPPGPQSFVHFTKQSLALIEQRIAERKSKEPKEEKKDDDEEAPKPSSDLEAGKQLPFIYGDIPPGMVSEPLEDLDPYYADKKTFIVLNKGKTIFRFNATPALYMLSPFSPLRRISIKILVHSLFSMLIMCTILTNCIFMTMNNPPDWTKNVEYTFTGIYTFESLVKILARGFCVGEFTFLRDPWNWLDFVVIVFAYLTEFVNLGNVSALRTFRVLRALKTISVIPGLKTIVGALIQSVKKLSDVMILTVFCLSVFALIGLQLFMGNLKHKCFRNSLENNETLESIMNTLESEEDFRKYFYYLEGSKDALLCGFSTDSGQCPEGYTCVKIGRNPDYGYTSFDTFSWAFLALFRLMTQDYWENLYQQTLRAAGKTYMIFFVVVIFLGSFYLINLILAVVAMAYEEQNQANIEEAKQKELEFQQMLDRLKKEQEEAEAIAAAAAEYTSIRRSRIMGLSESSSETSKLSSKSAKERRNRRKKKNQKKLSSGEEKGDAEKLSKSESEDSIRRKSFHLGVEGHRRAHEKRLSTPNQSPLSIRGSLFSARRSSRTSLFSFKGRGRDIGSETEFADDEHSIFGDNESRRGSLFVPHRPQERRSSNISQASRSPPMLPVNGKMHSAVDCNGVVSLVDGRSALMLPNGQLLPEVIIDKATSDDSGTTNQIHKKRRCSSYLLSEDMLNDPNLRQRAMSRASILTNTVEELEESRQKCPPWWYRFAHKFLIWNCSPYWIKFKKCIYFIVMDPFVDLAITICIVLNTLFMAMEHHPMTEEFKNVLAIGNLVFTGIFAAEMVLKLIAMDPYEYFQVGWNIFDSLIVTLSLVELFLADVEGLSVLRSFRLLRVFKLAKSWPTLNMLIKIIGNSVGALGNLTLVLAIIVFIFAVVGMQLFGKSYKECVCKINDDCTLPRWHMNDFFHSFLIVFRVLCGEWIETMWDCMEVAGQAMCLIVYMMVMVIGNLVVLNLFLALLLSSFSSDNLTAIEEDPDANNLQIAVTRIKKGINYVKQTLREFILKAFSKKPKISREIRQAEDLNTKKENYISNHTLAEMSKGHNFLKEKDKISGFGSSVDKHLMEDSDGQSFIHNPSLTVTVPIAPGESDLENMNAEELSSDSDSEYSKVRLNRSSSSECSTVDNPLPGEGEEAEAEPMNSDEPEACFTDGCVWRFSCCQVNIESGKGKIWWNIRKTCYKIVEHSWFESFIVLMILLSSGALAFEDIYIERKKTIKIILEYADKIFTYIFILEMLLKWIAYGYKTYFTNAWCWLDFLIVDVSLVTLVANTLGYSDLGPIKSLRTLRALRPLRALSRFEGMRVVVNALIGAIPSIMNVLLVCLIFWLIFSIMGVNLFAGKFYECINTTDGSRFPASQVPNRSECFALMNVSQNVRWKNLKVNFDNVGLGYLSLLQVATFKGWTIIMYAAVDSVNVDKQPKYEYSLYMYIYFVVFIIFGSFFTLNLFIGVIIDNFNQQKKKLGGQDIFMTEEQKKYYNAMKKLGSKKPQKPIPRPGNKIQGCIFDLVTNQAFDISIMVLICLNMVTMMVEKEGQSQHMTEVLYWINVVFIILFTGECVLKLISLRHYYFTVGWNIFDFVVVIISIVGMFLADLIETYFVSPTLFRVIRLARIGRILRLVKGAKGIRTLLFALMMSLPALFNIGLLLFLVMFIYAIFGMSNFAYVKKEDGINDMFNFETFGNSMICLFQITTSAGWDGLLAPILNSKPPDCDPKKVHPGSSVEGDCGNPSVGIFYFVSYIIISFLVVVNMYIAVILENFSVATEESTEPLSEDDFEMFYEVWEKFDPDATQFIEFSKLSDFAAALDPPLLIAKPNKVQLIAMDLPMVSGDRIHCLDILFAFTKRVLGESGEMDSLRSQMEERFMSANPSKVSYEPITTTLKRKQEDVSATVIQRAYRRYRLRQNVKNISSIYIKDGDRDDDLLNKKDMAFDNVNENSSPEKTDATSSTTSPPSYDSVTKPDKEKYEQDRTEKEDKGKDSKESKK

[4] = in vitro; conditions: human, Caco-2; remark: listed apart in the source
[5] = Clearance in Sprague-Dawley rat administered as single iv bolus by LC-MS/MS analysis; assay type: ADME, organism-based; conditions: in vivo
[6] = Oral bioavailability in Sprague-Dawley rat at 2 mg/kg administered as single dose via gavage by LC-MS/MS analysis; assay type: ADME, organism-based; conditions: in vivo
[7] = target: Cytochrome P450 2D6 (Homo sapiens, UniProt P10635)
Sequence of Cytochrome P450 2D6 (P10635 whole entry): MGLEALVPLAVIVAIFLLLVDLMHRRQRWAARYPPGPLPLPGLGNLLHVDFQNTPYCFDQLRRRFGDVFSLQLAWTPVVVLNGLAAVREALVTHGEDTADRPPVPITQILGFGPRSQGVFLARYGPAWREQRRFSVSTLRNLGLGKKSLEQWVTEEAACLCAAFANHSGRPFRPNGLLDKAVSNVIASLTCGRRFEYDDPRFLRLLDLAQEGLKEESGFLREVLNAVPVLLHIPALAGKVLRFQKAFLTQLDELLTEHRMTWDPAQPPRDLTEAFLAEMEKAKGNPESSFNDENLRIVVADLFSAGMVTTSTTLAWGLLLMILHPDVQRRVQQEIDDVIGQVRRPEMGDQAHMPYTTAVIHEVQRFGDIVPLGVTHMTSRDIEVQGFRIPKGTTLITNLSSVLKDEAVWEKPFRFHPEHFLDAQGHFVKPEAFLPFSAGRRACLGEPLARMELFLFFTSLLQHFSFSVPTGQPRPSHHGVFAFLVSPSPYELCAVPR

[8] = Volume of distribution at steady state in Sprague-Dawley rat administered as single iv bolus by LC-MS/MS analysis; assay type: ADME, organism-based; conditions: in vivo, read-out: Vdss
[9] = target: T1, Cytochrome P450 1A2 (Homo sapiens, UniProt P05177)
T1 sequence (P05177 whole entry): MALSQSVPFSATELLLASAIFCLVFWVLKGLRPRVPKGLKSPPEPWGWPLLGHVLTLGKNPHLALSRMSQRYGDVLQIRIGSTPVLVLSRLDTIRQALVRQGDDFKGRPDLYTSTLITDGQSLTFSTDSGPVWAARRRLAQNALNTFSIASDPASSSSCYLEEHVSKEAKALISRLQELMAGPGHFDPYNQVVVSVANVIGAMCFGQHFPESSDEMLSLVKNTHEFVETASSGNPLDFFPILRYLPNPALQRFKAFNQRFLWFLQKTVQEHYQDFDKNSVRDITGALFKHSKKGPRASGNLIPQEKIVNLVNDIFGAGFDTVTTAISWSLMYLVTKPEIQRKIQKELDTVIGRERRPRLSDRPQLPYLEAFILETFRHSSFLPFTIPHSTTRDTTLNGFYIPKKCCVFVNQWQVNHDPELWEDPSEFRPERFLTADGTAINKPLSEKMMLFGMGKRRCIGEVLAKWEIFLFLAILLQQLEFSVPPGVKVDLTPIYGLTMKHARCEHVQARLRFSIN

[10] = AUC in Sprague-Dawley rat at 2 mg/kg administered as single dose via oral gavage by LC-MS/MS analysis; assay type: ADME, organism-based; conditions: in vivo
[11] = target: Cytochrome P450 2C9 (Homo sapiens, UniProt P11712)
Sequence of Cytochrome P450 2C9 (P11712 whole entry): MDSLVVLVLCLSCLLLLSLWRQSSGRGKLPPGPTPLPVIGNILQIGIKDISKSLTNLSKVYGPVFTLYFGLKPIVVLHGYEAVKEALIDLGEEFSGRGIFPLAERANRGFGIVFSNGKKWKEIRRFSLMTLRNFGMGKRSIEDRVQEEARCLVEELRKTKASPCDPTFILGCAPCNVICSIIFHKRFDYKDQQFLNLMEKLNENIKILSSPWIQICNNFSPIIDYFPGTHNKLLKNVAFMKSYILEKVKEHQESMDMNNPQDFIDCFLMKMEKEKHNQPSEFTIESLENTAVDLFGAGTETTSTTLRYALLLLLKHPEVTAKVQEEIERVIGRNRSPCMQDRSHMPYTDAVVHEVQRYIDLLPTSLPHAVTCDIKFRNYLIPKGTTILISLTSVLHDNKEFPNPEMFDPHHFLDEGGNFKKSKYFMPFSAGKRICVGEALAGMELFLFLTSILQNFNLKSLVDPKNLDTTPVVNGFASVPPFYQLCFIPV

[12] = target: Cytochrome P450 3A4 (Homo sapiens, UniProt P08684)
Sequence of Cytochrome P450 3A4 (P08684 whole entry): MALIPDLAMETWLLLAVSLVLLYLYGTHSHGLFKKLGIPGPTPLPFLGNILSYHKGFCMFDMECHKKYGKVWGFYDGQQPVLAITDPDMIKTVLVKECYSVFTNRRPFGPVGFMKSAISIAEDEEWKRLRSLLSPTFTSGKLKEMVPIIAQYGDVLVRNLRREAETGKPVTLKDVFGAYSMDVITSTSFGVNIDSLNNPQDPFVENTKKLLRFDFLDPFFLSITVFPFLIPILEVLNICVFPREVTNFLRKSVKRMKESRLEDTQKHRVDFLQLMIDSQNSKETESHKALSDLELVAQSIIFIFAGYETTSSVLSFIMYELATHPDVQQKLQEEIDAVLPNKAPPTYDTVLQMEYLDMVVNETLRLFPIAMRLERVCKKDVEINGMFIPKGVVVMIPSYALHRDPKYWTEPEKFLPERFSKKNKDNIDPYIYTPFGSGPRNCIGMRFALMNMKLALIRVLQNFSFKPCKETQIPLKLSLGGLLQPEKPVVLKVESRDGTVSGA

[13] = target: Cytochrome P450 2C19 (Homo sapiens, UniProt P33261)
Sequence of Cytochrome P450 2C19 (P33261 whole entry): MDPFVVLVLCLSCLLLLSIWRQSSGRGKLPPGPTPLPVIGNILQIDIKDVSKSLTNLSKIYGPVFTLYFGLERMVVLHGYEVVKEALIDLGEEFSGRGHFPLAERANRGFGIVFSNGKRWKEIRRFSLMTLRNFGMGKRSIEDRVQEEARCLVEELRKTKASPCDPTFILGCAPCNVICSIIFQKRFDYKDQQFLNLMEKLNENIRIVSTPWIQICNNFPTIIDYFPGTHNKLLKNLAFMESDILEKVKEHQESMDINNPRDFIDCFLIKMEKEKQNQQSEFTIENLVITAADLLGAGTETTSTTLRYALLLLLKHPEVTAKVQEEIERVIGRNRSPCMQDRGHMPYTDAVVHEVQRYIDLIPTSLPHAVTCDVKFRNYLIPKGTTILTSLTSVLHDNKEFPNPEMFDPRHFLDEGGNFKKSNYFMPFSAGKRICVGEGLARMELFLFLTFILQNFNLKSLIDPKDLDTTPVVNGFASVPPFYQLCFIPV

[14] = Oral bioavailability in Sprague-Dawley rat at 10 mg/kg administered as single dose via gavage by LC-MS/MS analysis; assay type: ADME, organism-based; conditions: in vivo
[15] = AUC in Sprague-Dawley rat at 10 mg/kg administered as single dose via oral gavage by LC-MS/MS analysis; assay type: ADME, organism-based; conditions: in vivo
[16] = tested on: Rattus norvegicus; assay: Antinociceptive activity in Sprague-Dawley rat formalin-induced nociception model assessed as inhibition of formalin-induced flinches in phase 2 at 30 mg/kg, po administered via oral gavage 60 mins before formalin challenge measured for 1 hr post dose; assay type: functional, organism-based
[17] = tested on: Rattus norvegicus; assay: Antinociceptive activity in Sprague-Dawley rat formalin-induced nociception model assessed as inhibition of formalin-induced flinches in phase 1 at 30 mg/kg, po administered via oral gavage 60 mins before formalin challenge measured for 1 hr post dose; assay type: functional, organism-based
[18] = tested on: Rattus norvegicus; assay: Antiallodynic activity in Sprague-Dawley rat spinal nerve ligation model assessed as reduction in mechanical allodynia by measuring paw withdrawal threshold at 100 mg/kg, po measured at 1 to 2 hrs post dose; assay type: functional, organism-based
[19] = species: Homo sapiens; assay: Selectivity ratio of IC50 for human Nav1.4 to IC50 for human Nav1.7 expressed in CHO-K1 cells; assay type: cell-based
[20] = species: Homo sapiens; assay: Selectivity ratio of IC50 for human Nav1.5 expressed in HEK293 cells to IC50 for human Nav1.7 expressed in CHO-K1 cells; assay type: cell-based
[21] = tested on: Rattus norvegicus; assay: Antiallodynic activity in Sprague-Dawley rat spinal nerve ligation model assessed as reduction in mechanical allodynia by measuring paw withdrawal threshold at 30 mg/kg, po measured at 1 to 2 hrs post dose; assay type: functional, organism-based

Compound: CCN[C@@H]1CCC=C(c2ccc(F)cc2)[C@H]1CNc1cc(F)c(S(=O)(=O)Nc2cscn2)cc1Cl
IC50 [3]: 200 nM

Compound: CN(C)[C@@H]1CCC=C(c2ccc(F)cc2)[C@H]1COc1cc(F)c(S(=O)(=O)Nc2cscn2)cc1Cl.Cl (racemic)
efflux ratio at 2 h, 2 µM [1]: 1.8
Kp at 2 h [2]: 0.6
IC50 [3]: 14 nM
Papp A→B at 2 h, 2 µM [4]: 10 ×10⁻⁶ cm/s

Compound: CCN[C@@H]1CCC=C(c2ccc(F)cc2)[C@H]1COc1cc(F)c(S(=O)(=O)Nc2cscn2)cc1Cl.Cl (racemic)
efflux ratio at 2 h, 2 µM [1]: 70
Kp at 2 h [2]: 0.08
IC50 [3]: 59 nM
Papp A→B at 2 h, 2 µM [4]: 0.4 ×10⁻⁶ cm/s

Compound: O=S(=O)(Nc1cscn1)c1cc(Cl)c(OC[C@@H]2C(c3ccc(F)cc3)=CCC[C@H]2N2CCC2)cc1F (racemic)
IC50 [3]: 1150 nM

Compound: O=S(=O)(Nc1cscn1)c1cc(Cl)c(OC[C@@H]2C(c3ccc(F)cc3)=CCC[C@H]2n2cnnc2)cc1F (racemic)
IC50 [3]: 770 nM

Compound: CC(=O)N[C@@H]1CCC=C(c2ccc(F)cc2)[C@H]1COc1cc(F)c(S(=O)(=O)Nc2cscn2)cc1Cl (racemic)
IC50 [3]: 510 nM

Compound: Cl.N[C@@H]1CCC=C(c2ccc(F)cc2)[C@H]1CSc1cc(F)c(S(=O)(=O)Nc2cscn2)cc1Cl
clearance [5]: 26.1 mL/min/kg
bioavailability [6]: 27%
Vd [8]: 3.22 L/kg
AUC [10]: 0.62 µM·h
IC50 [3]: 59 nM

Compound: CCN(CC)[C@@H]1CCC=C(c2ccc(F)cc2)[C@H]1COc1cc(F)c(S(=O)(=O)Nc2cscn2)cc1Cl (racemic)
IC50 [3]: 310 nM

Compound: CC(C)N[C@@H]1CCC=C(c2ccc(F)cc2)[C@H]1COc1cc(F)c(S(=O)(=O)Nc2cscn2)cc1Cl.Cl (racemic)
efflux ratio at 2 h, 2 µM [1]: 37
Kp at 2 h [2]: 0.08
IC50 [3]: 94 nM
Papp A→B at 2 h, 2 µM [4]: 1.1 ×10⁻⁶ cm/s

Compound: CCN[C@@H]1CCC=C(c2ccc(F)cc2)[C@H]1COc1cc(F)c(S(=O)(=O)Nc2cscn2)cc1Cl
inhibition [16]: Active
inhibition [17]: inactive
Activity [18]: Active
Ratio IC50 [19]: > 30
Ratio IC50 [20]: > 30
Activity [21]: inactive

Compound: CCN[C@@H]1CCC=C(c2ccc(F)cc2)[C@H]1CSc1cc(F)c(S(=O)(=O)Nc2cscn2)cc1Cl
IC50 [3]: 100 nM

Compound: O=S(=O)(Nc1cscn1)c1cc(Cl)c(OC[C@@H]2C(c3ccc(F)cc3)=CCC[C@H]2n2ccnc2)cc1F (racemic)
IC50 [3]: 2340 nM

Further lines, results first:

efflux ratio at 2 h, 2 µM [1]: 127
Kp at 2 h [2]: 0.04
IC50 [3]: 170 nM
Papp A→B at 2 h, 2 µM [4]: 0.2 ×10⁻⁶ cm/s
Compound: CN[C@@H]1CCC=C(c2ccc(F)cc2)[C@H]1COc1cc(F)c(S(=O)(=O)Nc2cscn2)cc1Cl.Cl (racemic)

clearance [5]: 27.5 mL/min/kg
bioavailability [6]: 14%
IC50 [7]: 14100 nM
Vd [8]: 3.07 L/kg
IC50 [9]: > 50000 nM
AUC [10]: 0.29 µM·h
IC50 [3]: 6 nM
IC50 [11]: 200 nM
IC50 [12]: 16500 nM
IC50 [13]: 2100 nM
Compound: CCN[C@@H]1CCC=C(c2ccc(F)cc2)[C@H]1CNc1cc(F)c(S(=O)(=O)Nc2nccs2)cc1Cl.Cl

clearance [5]: 29 mL/min/kg
bioavailability [14]: 0.3%
IC50 [7]: 18000 nM
Vd [8]: 3.26 L/kg
IC50 [9]: > 50000 nM
IC50 [3]: 2 nM
IC50 [11]: 100 nM
IC50 [12]: > 50000 nM
AUC [15]: 0.03 µM·h
IC50 [13]: 8000 nM
Compound: Cl.N[C@@H]1CCC=C(c2ccc(F)cc2)[C@H]1COc1cc(F)c(S(=O)(=O)Nc2nccs2)cc1Cl (racemic)

clearance [5]: 46.5 mL/min/kg
bioavailability [6]: 14%
IC50 [7]: 18000 nM
Vd [8]: 6.05 L/kg
IC50 [9]: > 50000 nM
AUC [10]: 0.17 µM·h
IC50 [3]: 5 nM
IC50 [11]: 100 nM
IC50 [12]: 5100 nM
IC50 [13]: 3300 nM
Compound: Cl.N[C@@H]1CCC=C(c2ccc(F)cc2)[C@H]1CSc1cc(F)c(S(=O)(=O)Nc2nccs2)cc1Cl

clearance [5]: 66.6 mL/min/kg
bioavailability [14]: 3%
IC50 [7]: 4500 nM
Vd [8]: 6.21 L/kg
IC50 [9]: > 50000 nM
IC50 [3]: 48 nM
IC50 [11]: 200 nM
IC50 [12]: 21600 nM
AUC [15]: 0.12 µM·h
IC50 [13]: 1500 nM
Compound: CCN[C@@H]1CCC=C(c2ccc(F)cc2)[C@H]1COc1cc(F)c(S(=O)(=O)Nc2nccs2)cc1Cl.Cl (racemic)

clearance [5]: 44.2 mL/min/kg
bioavailability [6]: 3%
IC50 [7]: 42600 nM
Vd [8]: 4.24 L/kg
IC50 [9]: > 50000 nM
AUC [10]: 0.04 µM·h
IC50 [3]: 33 nM
IC50 [11]: 500 nM
IC50 [12]: > 50000 nM
IC50 [13]: 5600 nM
Compound: Cl.N[C@@H]1CCC=C(c2ccc(F)cc2)[C@H]1CNc1cc(F)c(S(=O)(=O)Nc2nccs2)cc1Cl

Reference: ChEMBL document CHEMBL4177611, “Discovery of aminocyclohexene analogues as selective and orally bioavailable hNav1.7 inhibitors for analgesia” (Bioorg Med Chem Lett, 2017)
